Laboratory results: patent US5183805A (Board of Regents, The University of Texas System, priority 1990, dated 1993)
Read-outs that look alike come from different tables or passages of the source. One block for each compound: values may come before it. Positions of bridges follow the written chain, without caps; N, C: chain ends. Residues, ends and D or L forms follow the SMILES beside them. No end group written: not given here.

Key:
EGF receptor [1] = target: T1, EGF receptor (Homo sapiens, UniProt P00533); test: Summary statements on biological activity (receptor studies, parameters examined) compared with other EGF peptide analogs
T1 sequence (P00533 25-1210): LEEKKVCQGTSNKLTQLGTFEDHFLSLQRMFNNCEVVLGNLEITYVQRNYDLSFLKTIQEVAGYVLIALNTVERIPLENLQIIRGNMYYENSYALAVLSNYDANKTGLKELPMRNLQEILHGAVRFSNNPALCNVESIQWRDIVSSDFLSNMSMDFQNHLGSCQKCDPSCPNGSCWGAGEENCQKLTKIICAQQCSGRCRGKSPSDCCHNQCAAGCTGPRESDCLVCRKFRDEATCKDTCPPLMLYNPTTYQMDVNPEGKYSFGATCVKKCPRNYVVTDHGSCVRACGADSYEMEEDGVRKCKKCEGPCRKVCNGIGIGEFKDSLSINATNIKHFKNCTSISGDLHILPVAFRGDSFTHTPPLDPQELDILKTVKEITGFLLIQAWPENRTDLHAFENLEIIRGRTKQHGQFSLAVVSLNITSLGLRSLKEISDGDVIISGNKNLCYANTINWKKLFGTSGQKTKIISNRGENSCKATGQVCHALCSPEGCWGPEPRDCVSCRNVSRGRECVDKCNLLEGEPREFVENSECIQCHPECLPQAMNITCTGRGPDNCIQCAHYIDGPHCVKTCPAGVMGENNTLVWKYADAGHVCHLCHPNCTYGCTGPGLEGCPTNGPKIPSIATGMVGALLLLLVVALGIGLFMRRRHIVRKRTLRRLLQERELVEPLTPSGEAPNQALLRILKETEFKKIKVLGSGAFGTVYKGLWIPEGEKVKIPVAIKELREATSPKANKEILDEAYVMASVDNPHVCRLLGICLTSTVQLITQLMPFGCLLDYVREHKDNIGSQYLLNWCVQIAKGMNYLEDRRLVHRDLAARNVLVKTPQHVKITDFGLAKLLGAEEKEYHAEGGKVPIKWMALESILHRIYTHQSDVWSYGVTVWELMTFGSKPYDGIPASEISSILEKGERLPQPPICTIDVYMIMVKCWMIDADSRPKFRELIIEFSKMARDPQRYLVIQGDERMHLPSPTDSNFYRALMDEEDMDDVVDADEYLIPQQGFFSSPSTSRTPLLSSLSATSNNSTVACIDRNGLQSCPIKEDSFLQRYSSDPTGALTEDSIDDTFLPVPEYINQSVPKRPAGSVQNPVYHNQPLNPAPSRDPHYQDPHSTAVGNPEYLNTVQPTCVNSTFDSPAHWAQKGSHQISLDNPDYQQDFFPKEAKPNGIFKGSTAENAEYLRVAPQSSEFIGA
Description: Relative biological activity of a peptide also may reflect the activity of the peptide in immune complex kinase assays, the ability to inhibit ornithine decarboxylase activity, mitogenic stimulation activity, ability to induce EGF-r phosphorylation in vivo and action in the phosphorylation of calpactin.

EGF-R = target: T2, EGF-R (Homo sapiens, UniProt P00533); test: Kinetics of EGF-R kinase stimulation: peptide added to A431 cells, then immune complex kinase assay; assay type: cell-based; details: 20 ng/ml peptide, 37° C, very preliminary
T2 construct: endogenous in cells; host or cells: A431 epidermoid carcinoma cells (ATCC CRL 1555)
T2 sequence (P00533 25-1210): as above
Experimental: FIG. 1 - Kinetics of EGF-R stimulation by synthetic peptides. To semi-confluent A431 cells (grown in 0.1% FCS), indicated concentrations of cyclic (peptide A) or linear (peptide D) peptide with tyr at position 6 was added at a concentration of 20 ng/ml for 10 min at 37° C. Cells were harvested, lysed, EFG-R was immunoprecipitated, immune complex kinase assays were performed, and proteins resolved as described in FIG. 1. […] This figure compares preliminary kinetics of kinase stimulation after the addition of the active cyclic and less-active linear peptide to A431 cells. Immune complex kinase of EGF-r after addition of various biological response modifiers to A431 cells is shown.

[2] = test system: ornithine decarboxylase (ODC) induction by EGF; test: Effect of peptide pretreatment on EGF-stimulated ODC induction in ME-180 cells; assay type: cell-based; details: 100-fold excess, 100 ng/ml peptide 30 min, then 10 ng/ml EGF 3 hours
Experimental: FIG. 4--Effect of synthetic peptide pretreatment on EGF-stimulated ODC induction in ME-180 cells. […] Cells are pelleted, sonicated in a buffer containing 25 mM NaPO4, 1mM DTT, 40 μM PLP, 0.1 mM EDTA, and centrifuged for 30 min. at 15,000 rpm at 4° C. Ornithine decarboxylase activity was determined on the supernatant by monitoring ^14 CO2 released from 0.5 μCi of I (^14 C) ornithine in a total ornithine concentration of 0.5 mM and a total volume of 0.2ml. P1--linear peptide and P2--cyclic peptide with phe at position 6; P3--linear peptide and P4--cyclic peptide with tyr at position 6.

EGF receptor [3] = target: T1, EGF receptor; test: Inhibition of 125I-EGF binding to A431 cells (EGF receptor competition assay); parameters: endogenous in cells; host or cells: A431 epidermoid carcinoma cells (ATCC CRL 1555)
Experimental: FIG. 3--Inhibition of ^125 I-EGF binding by synthetic peptides. 1×10^5 A431 cells were plated in each well of a 24 well tissue culture plate, and allowed to grow for 48 o hours. Cells were rinsed 3 times in cold serum-free DMEM containing 0.1% BSA and 50 mM HEPES, pH 7.4, then incubated in this medium for 45 min. at 4° C. Subsequently, varying concentrations of peptide (or unlabeled EFG) was added, followed by 20,000 cpm ^125 I-EGF. After 2 hours incubation, medium is removed and cells are washed two times in PBS, then solubilized in 1 ml IN NaOH at 24° C. for 18 hours. Radioactivity in the solution is determined in a gamma counter. Peptide A--cyclic peptide with tyr at position 6; Peptide B--linear peptide with tyr at position 6; Peptide C --cyclic peptide with phe at position 6.
For this assay, cells were grown overnight in serum free media in microtiter wells, washed several times in PBS, then incubated for 2h with various concentrations of peptides. ^125 I-EGF was then added for 3o min, cells were extensively washed, and radioactivity was estimated in a gamma counter.

A431 cells = test: Mitogenic stimulation / growth of A431 cells; assay type: cell-based; details: for effect on A431 cell growth: serum-free medium, counted after 72 hours
Experimental: FlG. […] Mitogenic Stimulation of A431 cells. […] The peptide analog 38A is the cyclic form of the peptide with native tyrosine. Cells were harvested 72 hours later and counted with the aid of a hemacytometer.
A431 cells are a malignant cell line in which the study of EGF-r has been well characterized. […] Over the range of peptide analog concentrations tested, no inhibition of A431 cell growth was observed.

EGF receptor [4] = target: T1, EGF receptor; test: Immune complex kinase assay of EGF-R immunoprecipitated from A431 cells, peptides added to the complexes, autophosphorylation measured; assay type: biochemical; parameters: endogenous in cells; host or cells: A431 epidermoid carcinoma cells (ATCC CRL 1555)
Experimental: A431 cells at approximately 70-80% confluency were lysed in a detergent-containing (RIPA) buffer, and clarified by centrifuging at 10,000×g for 10 min. […] Immune complexes were harvested after 15 min. incubation with 50 μl Pansorbin. For kinase assays, complexes were washed in RIPA buffer, then resuspended in 50 μl 1 0.1% Triton X-100 in 20 mM HEPES, pH 7.0, with the addition of 100 μm sodium vanadate. After 10 min. incubation, kinase reaction was initiated by addition of 50 μl of 20 mM HEPES containing 10 μCi γ^-32p ATP. Reaction was allowed to proceed at 25° C. for 10 min., and terminated by addition of RIPA buffer.
This assay is very sensitive, and kinase activation is among the earliest events in mitogenesis.
Immune complexes were harvested with formalin fixed staphylococcus aureus Cowan Strain (Calbiochem). These complexes were then assayed for kinase activity in an immune complex kinase assay.
Selected peptides from Example 3 were employed in the study.

[5] = Heath and Merrifield (1986); cited from earlier work

biological activity relative to any other EGF peptide analog so far synthesized (EGF receptor [1]; listed as cyclic form of this unsubstituted peptide): 100 fold
biological activity relative to any other EGF peptide analog so far synthesized (EGF receptor [1]; listed as cyclic peptide comprising the end of the B loop and the C loop): 100 fold
biological activity relative to any other EGF peptide analog so far synthesized (EGF receptor [1]; listed as natural tyrosine form of the cyclic peptide analog): > 100 fold
time of maximum stimulation of kinase activity (EGF-R): 15 min
competition for EGF receptor binding relative to any previously reported peptide (EGF receptor [3]): 100 fold
concentration for 50% inhibition of 125I-EGF binding relative to that for unlabeled EGF (EGF receptor [3]): 10 fold
Compound: CC[C@H](C)[C@@H]1NC(=O)[C@H](Cc2ccc(O)cc2)NC(=O)CNC(=O)[C@H](C(C)C)NC(=O)[C@H](C(C)C)NC(=O)[C@@H](NC(=O)[C@H](CC(N)=O)NC(C)=O)CSSC[C@@H](C(=O)N[C@@H](CCC(N)=O)C(=O)N[C@@H](Cc2ccc(O)cc2)C(=O)N[C@@H](CCCNC(=N)N)C(=O)N[C@@H](CC(=O)O)C(=O)N[C@@H](CC(C)C)C(=O)N[C@@H](CCCCN)C(N)=O)NC(=O)[C@H](CCCNC(=N)N)NC(=O)[C@H](CCC(=O)O)NC(=O)CNC1=O [Peptide A] (Ac-NCVVGYIGERCQYRDLK-NH2; disulfide 2-11)
inhibition of ODC induction of EGF [2]: 50%
effect on A431 cell growth (A431 cells; 0.1 ng/ml, listed as 38A): stimulated cell growth
effect on A431 cell growth (A431 cells; 0.1 ng/ml, listed as most biologically active cyclic peptide analog): stimulated these cells
effect of higher concentrations of EGF on A431 growth in the presence of peptide (A431 cells; 10 ng/ml peptide analog mixed with higher concentrations of EGF): no longer growth-inhibited
effect on A431 cell growth (A431 cells; 10 ng/ml, listed as 38A): stimulated cell growth
effect on A431 cell growth (A431 cells; 10 ng/ml, listed as most biologically active cyclic peptide analog): stimulated these cells
effect on A431 cell growth of peptide mixed with EGF (A431 cells; peptide and EGF mixed, low concentrations): stimulation of cell growth
inhibition of A431 cell growth over the range of concentrations tested (A431 cells; whole concentration range tested): no inhibition

biological activity relative to any other EGF peptide analog so far synthesized (EGF receptor [1]): 10 fold
competition for 125I-EGF binding (in words) (EGF receptor [3]): marginal competition
Compound: CC[C@H](C)[C@H](NC(=O)[C@H](Cc1ccc(O)cc1)NC(=O)CNC(=O)[C@@H](NC(=O)[C@@H](NC(=O)[C@H](CS)NC(=O)[C@H](CC(N)=O)NC(C)=O)C(C)C)C(C)C)C(=O)NCC(=O)N[C@@H](CCC(=O)O)C(=O)N[C@@H](CCCNC(=N)N)C(=O)N[C@@H](CS)C(=O)N[C@@H](CCC(N)=O)C(=O)N[C@@H](Cc1ccc(O)cc1)C(=O)N[C@@H](CCCNC(=N)N)C(=O)N[C@@H](CC(=O)O)C(=O)N[C@@H](CC(C)C)C(=O)N[C@@H](CCCCN)C(N)=O [Peptide B] (Ac-NCVVGYIGERCQYRDLK-NH2)

competition for 125I-EGF binding (in words) (EGF receptor [3]): marginal competition
stimulation of kinase activity (EGF receptor [4]; 30 ng/ml peptide): approximately 2 fold
Compound: CC[C@H](C)[C@@H]1NC(=O)[C@H](Cc2ccccc2)NC(=O)CNC(=O)[C@H](C(C)C)NC(=O)[C@H](C(C)C)NC(=O)[C@@H](NC(=O)[C@H](CC(N)=O)NC(C)=O)CSSC[C@@H](C(=O)N[C@@H](CCC(N)=O)C(=O)N[C@@H](Cc2ccc(O)cc2)C(=O)N[C@@H](CCCNC(=N)N)C(=O)N[C@@H](CC(=O)O)C(=O)N[C@@H](CC(C)C)C(=O)N[C@@H](CCCCN)C(N)=O)NC(=O)[C@H](CCCNC(=N)N)NC(=O)[C@H](CCC(=O)O)NC(=O)CNC1=O [Peptide C] (Ac-NCVVGFIGERCQYRDLK-NH2; disulfide 2-11)

stimulation of EGF-receptor kinase activity (in words) (EGF receptor [4]): no activity
Compound: CC[C@H](C)[C@H](NC(=O)[C@H](Cc1ccccc1)NC(=O)CNC(=O)[C@@H](NC(=O)[C@@H](NC(=O)[C@H](CS)NC(=O)[C@H](CC(N)=O)NC(C)=O)C(C)C)C(C)C)C(=O)NCC(=O)N[C@@H](CCC(=O)O)C(=O)N[C@@H](CCCNC(=N)N)C(=O)N[C@@H](CS)C(=O)N[C@@H](CCC(N)=O)C(=O)N[C@@H](Cc1ccc(O)cc1)C(=O)N[C@@H](CCCNC(=N)N)C(=O)N[C@@H](CC(=O)O)C(=O)N[C@@H](CC(C)C)C(=O)N[C@@H](CCCCN)C(N)=O [Peptide P1] (Ac-NCVVGFIGERCQYRDLK-NH2)

Compound: epidermal growth factor (NSDSECPLSHDGYCLHDGVCMYIEALDKYACNCVVGYIGERCQYRDLKWWELR; Epidermal growth factor; UniProt P01133 971-1023, looked up) [EGF, single-chain polypeptide, 53 amino acid residues, three internal disulfide bonds]
effect on A431 cell growth (A431 cells; 0.1 ng/ml): stimulated A431 cell growth
effect on A431 cell growth (A431 cells; 0.1 ng/ml, listed as Native EGF): stimulated growth
effect on A431 cell growth (A431 cells; 10 ng/ml): inhibited
effect on A431 cell growth (A431 cells; 10 ng/ml, listed as Native EGF): inhibited cell growth

Compound: isolated "B" loop: synthetic peptide of the isolated B loop of EGF (residues 20-31), Heath and Merrifield (CMYIEALDKYAC; ends and bridges not checked; cysteine pairing not given here; UniProt P01133 990-1001, looked up, fragment)
activity relative to EGF [5]: 0.001%
